The source made the active and inactive calls.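 Rule for the calls: active = AC50 no more than tenfold above the top dose tested, or full inhibition at every dose with a flat fit (cut at about 19 µM in these data); inconclusive = flat curve fit with inhibition between 30% and 70%, or poor fit; inactive = AC50 more than tenfold above the top dose tested.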
Test system: HMLE_sh_eGFP viability, CellTiter-Glo luminescence, 72 h
Assay: cytotoxicity in HMLE control line with eGFP shRNA, dose response, counter-screen for HMLE_sh_ECad selective toxicity project, cell-based, HMLE_sh_eGFP, luminescence (AID 463074);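 note: counterscreen control line to flag general toxicity for the HMLE_sh_ECad screen; potency for loss of viability as luminescence drops below DMSO wells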

SMILES: O=C(O)c1ccc(C=C(c2nc3ccccc3s2)c2nc3ccccc3s2)cc1
- AC50: 5.12 µM

SMILES: CCOc1cc(NC(=O)c2ccccn2)c(OCC)cc1NC(=O)c1ccccc1
- AC50: > 19.5 µM (inactive)

SMILES: O=C(NC1CONC1=O)OCC(Cl)(Cl)Cl (stereo not given)
- AC50: > 19.5 µM (inactive)

SMILES: CCN(c1ccccc1)c1nc(C#N)nc(N(CC)c2ccccc2)n1
- AC50: 7.07 µM

SMILES: CCc1ccc2[nH]c(=O)c(C3C(C#N)=C(N)Oc4c3ccc3cccnc43)cc2c1 (stereo not given)
- AC50: 8.92 µM

SMILES: CCOc1ccc(/C=N/NC(=O)COc2ccccc2-c2ccccc2)cc1
- AC50: 6.53 µM

SMILES: O=C(Nc1ccc(Cn2cccn2)cc1)c1ccc(COc2cccc(Br)c2)cc1
- AC50: 0.302 µM

SMILES: Cc1nn(-c2nc3ccccc3s2)c(C)c1Oc1ccccc1O
- AC50: 5.71 µM

SMILES: COc1cc(C[C@H](C)[C@H](C)Cc2ccc3c(c2)OCO3)ccc1O
- AC50: 6.66 µM

SMILES: CC(C)(C)c1ccc(OCC(=O)N/N=C/c2cc(Br)ccc2OC(=O)c2ccco2)cc1
- AC50: 3.61 µM

SMILES: Cc1ccc(F)c([C@H]2C3C=CCC(c4ccccc4)C3C(=O)N2Cc2ccccc2)c1 (stereo not given in full)
- AC50: 6.52 µM

SMILES: COc1cc2cnc(-c3ccccc3)c(-c3cccc(C(F)(F)F)c3)c2cc1OC
- AC50: 6.67 µM

SMILES: O=C(Nc1ccc(Cl)cc1)Nc1ccccc1Sc1ncc([N+](=O)[O-])s1
- AC50: 6.81 µM

SMILES: COc1cccc(Cn2nnc(C(=O)Nc3cc(Cl)ccc3OC)c2N)c1
- AC50: 0.935 µM

SMILES: COc1ccc(/C=C/C(=O)c2c(O)n(CCC3=CCCCC3)c(=O)[nH]c2=O)cc1
- AC50: 3.33 µM

SMILES: Cc1cc(C(=O)Nc2nc3c(s2)CCCC3)cs1
- AC50: > 19.5 µM (inactive)

SMILES: Cc1cccc2sc(NC(=O)C3c4ccccc4Oc4ccccc43)nc12
- AC50: 5.71 µM

SMILES: CCCc1ccc(O)c(N=Cc2cc(Br)cc(OCC)c2O)c1
- AC50: 9.03 µM

SMILES: CC12CCC(C/C1=N\N=C1\NC(=O)/C(=C\c3cccc(Br)c3)S1)C2(C)C (stereo not given)
- AC50: 2.49 µM

SMILES: COc1ccc2sc(-c3ccc(SC)cc3)c(-c3ccc(O)cc3)c2c1
- AC50: 2.42 µM

SMILES: CC(C)[C@@H]1CC[C@@H](C)c2c(-c3ccccc3)n[nH]c21
- AC50: 6.38 µM

SMILES: CCc1ccc(N(CC(=O)Nc2nc3ccc(C)cc3s2)S(=O)(=O)c2c(C)noc2C)cc1
- AC50: 6 µM

SMILES: O=C(Nc1ccccc1)C1=C[C@@H](c2ccc(C(F)(F)F)cc2)C[C@@H](OCc2ccc(CO)cc2)O1
- AC50: 7.43 µM

SMILES: Cc1nn(-c2ccc(F)cc2)c(Cl)c1/C=C1\C(=O)Nc2ccccc21
- AC50: 2.34 µM

SMILES: C=CCn1c(Sc2ncc([N+](=O)[O-])s2)n[nH]c1=O
- AC50: 3.59 µM

SMILES: CCCCCc1cc(=O)oc2c(C(CCN3CCCC(C)C3)c3ccc4c(c3)OCO4)c(OC)cc(OC)c12 (stereo not given)
- AC50: 6.78 µM

SMILES: Cc1ccc(NS(=O)(=O)c2sc3ccc(Cl)cc3c2C)cc1
- AC50: 3.78 µM

SMILES: CC(C)C[C@H](NC(=O)c1nc[nH]c1C(=O)NC(c1ccccc1)c1ccccc1)C(=O)OC(C)(C)C
- AC50: 3.67 µM

SMILES: CSc1nc2ccccc2cc1/C=C(\C#N)c1cccc(Cl)c1
- AC50: 2.73 µM

SMILES: COc1cc(Br)cc(/C=C/c2ccc3cccc(O)c3n2)c1O
- AC50: 3.91 µM

SMILES: OC(CNCCc1ccc(C(F)(F)F)cc1)COc1ccc2ccccc2c1 (stereo not given)
- AC50: 4.98 µM

SMILES: Cc1cc(F)ccc1S(=O)(=O)Nc1ccccc1C(=O)Nc1ccccc1-c1nc2ccccc2[nH]1
- AC50: 5.51 µM

SMILES: Clc1ccc2c(N/N=C/c3cccc(Br)c3)ccnc2c1
- AC50: 4.06 µM

SMILES: O=C(NCCN1CCOCC1)NC1(C(F)(F)F)Oc2ccc(Cl)cc2O1 (stereo not given)
- AC50: 14 µM

SMILES: COc1ccccc1/C=C/C1(C(=O)NC2CCCC2)CC(=O)N1c1ccc(F)cc1 (stereo not given)
- AC50: 10.1 µM

SMILES: CCC(c1nnnn1Cc1ccco1)N1CCN(c2cc(Cl)ccc2C)CC1 (stereo not given)
- AC50: 4.04 µM

SMILES: COc1ccccc1C(CCNCc1ccc(N(C)C)cc1)c1ccc(OC(C)C)cc1 (stereo not given)
- AC50: 3.58 µM

SMILES: O=[N+]([O-])c1ccc(N2N=C(c3ccccc3)CC2c2ccccc2O)cc1 (stereo not given)
- AC50: 2.51 µM

SMILES: Cc1ccc(-c2nc(C(Cl)Cl)c3ccccc3n2)cc1
- AC50: 1.33 µM

SMILES: Cc1nnc2sc(SCc3cccc(Cl)c3)nn2c1=O
- AC50: > 19.5 µM (inactive)

SMILES: CCOc1ccc(S(=O)(=O)N2CCN=C2c2ccccc2)cc1
- AC50: 3.1 µM

SMILES: COc1cc(/C=C/c2[nH]c(=O)[nH]c(=O)c2[N+](=O)[O-])ccc1OCCC(C)C
- AC50: 7.14 µM

SMILES: CCCCn1c(=O)c(C(=O)NCc2ccc(Cl)cc2)c(O)c2ccccc21
- AC50: 7.8 µM

SMILES: Cc1cccc(Nc2nc(-c3ccc(O)cc3O)cs2)n1
- AC50: 7.5 µM

SMILES: Cn1nnnc1Sc1ncnc2scc(-c3cc4ccccc4o3)c12
- AC50: 1.17 µM

SMILES: CCn1c(N2CCN(S(=O)(=O)c3ccc(F)cc3)CC2)nc2ccccc21
- AC50: > 19.5 µM (inactive)

SMILES: COc1nc(N2CCCCCC2)nc(N2CCCCCC2)n1
- AC50: 7.43 µM

SMILES: COc1ccc(C(c2c[nH]c3ccccc23)c2c[nH]c3ccccc23)cc1O
- AC50: 4.62 µM

SMILES: C[C@@H]1CN([C@@H](C)CO)C(=O)c2cc(NC(=O)Nc3ccc(F)cc3)ccc2O[C@@H]1CN(C)Cc1ccc(Oc2ccccc2)cc1
- AC50: 3.48 µM

SMILES: C[C@@H]1O[C@@H](O[C@@H]2C=C3CC[C@@H]4C(CC[C@]5(C)[C@@H](c6ccc(=O)oc6)CC[C@]45O)[C@@]3(C)CC2)[C@H](O)[C@H](O)[C@H]1O (stereo not given in full)
- AC50: < 0.16 µM

SMILES: CN(C(=O)COC(=O)/C=C/c1cccc([N+](=O)[O-])c1)C1CCS(=O)(=O)C1 (stereo not given)
- AC50: 4.61 µM

SMILES: CCOC(=O)c1cccc(C2=CC(=O)C[C@H](c3ccc(Cl)cc3)C2)c1
- AC50: 2.82 µM

SMILES: O=C(O)CCn1cc(/C=C/C(=O)c2ccc(Cl)cc2)c(-c2ccc(Br)cc2)n1
- AC50: 7.09 µM

SMILES: CNC(=O)NC(=O)C(C)OC(=O)c1oc2ccccc2c1CSc1ccc(Cl)cc1 (stereo not given)
- AC50: 19.3 µM

SMILES: FC(F)(F)c1cc(CCN2C(=S)NC[C@@H]2CC2CCCCC2)cc(C(F)(F)F)c1
- AC50: 7.29 µM

SMILES: O=C(/C=C/c1ccncc1)c1ccc(NC(=O)c2ccccc2F)cc1
- AC50: 4.38 µM

SMILES: CCc1ccc2nc(SCC(=O)Nc3ccccc3N3CCOCC3)c(C#N)cc2c1
- AC50: 2.73 µM

SMILES: CC1(C)C=Cc2c(ccc3c2OC[C@@H](c2ccc(O)cc2O)C3)O1
- AC50: 7.27 µM

SMILES: Clc1ccc(CO/N=C/c2c(-c3ccccc3)nc3n2CCS3)c(Cl)c1
- AC50: 4.62 µM

SMILES: COc1ccc(CN2CCC(N(CCc3ccccc3)Cc3ccccc3)CC2)c(OC)c1
- AC50: 5.43 µM

SMILES: COc1ccc(C(=O)/C=C/c2ccc(OCc3ccccc3)cc2)cc1CSCC(=O)O
- AC50: 5.81 µM

SMILES: Cn1cc([N+](=O)[O-])c(C(=O)Nc2ccc(-c3nc4ccccc4o3)cc2)n1
- AC50: 2.33 µM

SMILES: CC(=O)c1ccc(NC(=O)COC(=O)c2c3c(nc4ccccc24)/C(=C\c2cccs2)CCC3)cc1
- AC50: 4.54 µM

SMILES: O=C(CCN1Cc2ccccc2C1)c1ccc2c(c1)OCCO2
- AC50: 15.1 µM

SMILES: CCCCn1c(SCC(N)=O)nc2sc3c(c2c1=O)CCC3
- AC50: > 19.5 µM (inactive)

SMILES: O=[N+]([O-])c1ccc(-c2nc(Nc3cccc(O)c3)c3ccccc3n2)cc1
- AC50: 3.89 µM

SMILES: Cc1ccc(CSc2nc3sc(C)c(C)c3c(=O)n2Cc2ccco2)cc1
- AC50: > 19.5 µM (inactive)

SMILES: O=C(Nc1cc(S(=O)(=O)Nc2ccc(Cl)cc2)ccc1N1CCCCC1)c1ccc(F)cc1Cl
- AC50: 5.37 µM

SMILES: CN(CC(=O)Nc1ccccc1Cl)C(=O)c1cccc(-n2cccc2)c1
- AC50: > 19.5 µM (inactive)

SMILES: Cc1cc([N+](=O)[O-])nn1Cc1ccc(C(=O)N/N=C/c2ccc(O)cc2O)cc1
- AC50: 2.25 µM

SMILES: NC(=O)CC(NC(=O)Cc1cccc2ccccc12)c1ccc(NCc2ccc(F)c(F)c2)c([N+](=O)[O-])c1 (stereo not given)
- AC50: 10.7 µM

SMILES: O=C(Nc1cnn(C23CC4CC(CC(C4)C2)C3)c1)c1cc(-c2ccccc2)on1
- AC50: 11.4 µM

SMILES: COc1ccc(N(C(=O)c2ccccc2C)S(=O)(=O)c2cccs2)cc1
- AC50: 0.231 µM

SMILES: CC1CCC2C(=O)N(c3ccc(NC4CCCCC4)c([N+](=O)[O-])c3)C(=O)C2C1 (stereo not given)
- AC50: 4.01 µM

SMILES: Clc1ccc(N/N=C/c2cccnc2)cc1
- AC50: 7.94 µM

SMILES: C[C@H](CO)N1C[C@H](C)[C@@H](CN(C)S(=O)(=O)c2ccccc2)Oc2ccc(NC(=O)Nc3ccc(C(F)(F)F)cc3)cc2C1=O
- AC50: 12.9 µM

SMILES: COc1cc(OC)cc(-c2sc3ccc(OC)cc3c2C#CCO)c1
- AC50: 6.89 µM

SMILES: Cc1cc2c(cc1C)C(c1ccccc1OC(C)C)CC(=O)N2 (stereo not given)
- AC50: 1.54 µM

SMILES: O=C1/C(=C\c2cccc(O)c2O)SC(=S)N1Cc1ccccc1
- AC50: 4.85 µM

SMILES: Oc1ccccc1-n1c(-c2ccccc2)ccc1-c1ccccc1
- AC50: 7.62 µM

SMILES: COc1cccc(-c2sc3ccccc3c2-c2ccc(OCCN3CCCC3)cc2)c1
- AC50: 2.81 µM

SMILES: CCCc1ccc(-c2cc(NC(=O)CSc3nnc(N)s3)n(-c3ccccc3)n2)cc1
- AC50: 6.67 µM

SMILES: CCOc1cc(/C=N/O)cc(Br)c1OCc1ccc(Cl)cc1
- AC50: 5.69 µM

SMILES: CN(C)c1ccc(/C=C2\CCC/C(=C\c3ccccc3)C2=O)cc1
- AC50: 5.47 µM

SMILES: O=C(Nc1ccc(S(=O)(=O)N2CCOCC2)cc1)c1cc(-c2cc(Cl)ccc2O)n[nH]1
- AC50: 2.18 µM

SMILES: O=C(C[n+]1ccccc1)NNc1ccccc1
- AC50: 1.78 µM

SMILES: N#Cc1c(/N=C/N2CCCC2)oc(-c2ccccc2)c1-c1ccccc1
- AC50: 3.02 µM

SMILES: O=C(NCCN1CCCC1)c1ccc2c(c1)N(Cc1cccc(Cl)c1)C(=O)c1ccccc1S2(=O)=O
- AC50: > 19.5 µM (inactive)

SMILES: COc1ccc(CCC(C)NCC2CCCCC2)cc1 (stereo not given)
- AC50: 1.66 µM

SMILES: COc1ccc(-c2sc3ccccc3c2C#Cc2cncn2C)cc1
- AC50: 4.83 µM

SMILES: Nc1cc(Cl)ccc1Oc1ccc2ccccc2c1
- AC50: > 10 µM (inactive)

SMILES: O=C1Nc2ccc(Cl)cc2[C@@](C#CC2CC2)(C(F)(F)F)O1
- AC50: 7.55 µM

SMILES: O=C1/C(=C/c2ccncc2)Oc2cc(OS(=O)(=O)c3ccccc3)ccc21
- AC50: 4.81 µM

SMILES: CC(C)(C)OC(=O)NCCc1nnc(S(=O)(=O)Cc2ccc(Cl)cc2Cl)o1
- AC50: 5.73 µM

SMILES: COc1ccccc1-c1sc2cc3c(cc2c1C#Cc1cncn1C)OCO3
- AC50: 5.73 µM

SMILES: S=c1[nH]nc(C2CCCCC2)n1/N=C/C(Cl)=C\c1ccccc1
- AC50: 8.35 µM

SMILES: Cc1cc(C)c2sc(N(CCCN(C)C)C(=O)c3ccc(S(=O)(=O)N4CCCc5ccccc54)cc3)nc2c1
- AC50: 3.73 µM

SMILES: O=C(Nc1ccc([N+](=O)[O-])cc1)Nc1ccc(OC(F)F)c(Cl)c1
- AC50: 2.09 µM

SMILES: CSc1ccc(C2=CC(=O)C[C@H](c3ccc(Cl)cc3)C2)cc1
- AC50: 9.27 µM

SMILES: c1ccc(CN2CCC(Nc3nc(-c4ccccc4)nc4ccccc34)CC2)cc1
- AC50: 6.67 µM

SMILES: CCNc1nc(Oc2c(Cl)cccc2Cl)cc(C(F)(F)F)n1
- AC50: 13.1 µM

SMILES: O=C(Nc1ccccc1)NN(C(=O)CCl)c1ccccc1
- AC50: 6.45 µM

SMILES: CN1CC(c2ccccc2)C2(SC(=S)N(Cc3ccco3)C2=O)C12C(=O)Nc1ccccc12 (stereo not given)
- AC50: 7.31 µM

SMILES: Cc1cccc(N=N/C(=C\O)C(=O)c2cccs2)c1
- AC50: 6.25 µM

SMILES: COc1ccccc1/C=C1\SC(=O)N(CCC(=O)NCCCn2ccnc2)C1=O
- AC50: 19.5 µM
